Experimental data as given in ChEMBL document CHEMBL4619730, “Hypolipidemic constituents from the aerial portion of Sibiraea angustata” (Bioorg Med Chem Lett, 2020).
Calls of active or inactive are those of the source. The rule behind the calls is not given here.

Key:
Format in all cases: functional, cell-based
[1] = system: HepG2; assay: Hypolipidemic activity against oleic acid-induced lipid accumulation in human HepG2 cell model assessed as decrease in diglycerides (20:4/18:2/0:0) level at 10 uM by UPLC-QTOF-MS analysis
[2] = system: HepG2; assay: Hypolipidemic activity against oleic acid-induced lipid accumulation in human HepG2 cell model assessed as decrease in 1acyl-sn-glycero-3phosphocholines (18:2/0:0) level at 10 uM by UPLC-QTOF-MS analysis
[3] = system: HepG2; assay: Downregulation of FASN mRNA expression in human HepG2 cells at 10 uM by qRT-PCR analysis
[4] = system: HepG2; assay: Hypolipidemic activity against oleic acid-induced lipid accumulation in human HepG2 cell model assessed as decrease in phosphatidylcholine (18:2/18:2) level at 10 uM by UPLC-QTOF-MS analysis
[5] = system: HepG2; assay: Hypolipidemic activity against oleic acid-induced lipid accumulation in human HepG2 cell model assessed as decrease in triglycerides (16:0/14:0/20:5) level at 10 uM by UPLC-QTOF-MS analysis
[6] = system: HepG2; assay: Downregulation of HMGCR mRNA expression in human HepG2 cells at 10 uM by qRT-PCR analysis
[7] = system: HepG2; assay: Hypolipidemic activity against oleic acid-induced lipid accumulation in human HepG2 cell model assessed as decrease in diglycerides (18:2/20:5/0:0) level at 10 uM by UPLC-QTOF-MS analysis
[8] = system: HepG2; assay: Hypolipidemic activity against oleic acid-induced lipid accumulation in human HepG2 cell model assessed as decrease in triglycerides (16:0/16:0/18:3) level at 10 uM by UPLC-QTOF-MS analysis
[9] = system: HepG2; assay: Hypolipidemic activity against oleic acid-induced lipid accumulation in human HepG2 cell model assessed as decrease in triglycerides (18:1/16:0/20:5) level at 10 uM by UPLC-QTOF-MS analysis
[10] = system: HepG2; assay: Downregulation of SREBF1 mRNA expression in human HepG2 cells at 10 uM by qRT-PCR analysis
[11] = system: HepG2; assay: Hypolipidemic activity against oleic acid-induced lipid accumulation in human HepG2 cell model assessed as decrease in triglycerides (18:1/18:3/18:1) level at 10 uM by UPLC-QTOF-MS analysis
[12] = system: HepG2; assay: Hypolipidemic activity against oleic acid-induced lipid accumulation in human HepG2 cell model assessed as decrease in phosphatidylcholine (O-16:0/20:5) level at 10 uM by UPLC-QTOF-MS analysis
[13] = system: HepG2; assay: Hypolipidemic activity against oleic acid-induced lipid accumulation in human HepG2 cell model assessed as decrease in diglycerides (20:5/16:0/0:0) level at 10 uM by UPLC-QTOF-MS analysis
[14] = system: HepG2; assay: Hypolipidemic activity in human HepG2 cells assessed as inhibition of oleic acid-induced lipid accumulation at 10 uM
[15] = system: HepG2; assay: Hypolipidemic activity against oleic acid-induced lipid accumulation in human HepG2 cell model assessed as decrease in diglycerides (20:1/0:0/20:4) level at 10 uM by UPLC-QTOF-MS analysis

`COc1ccc(/C=C/C(=O)OC[C@@H]2O[C@H](OC/C=C3\C[C@@H](C=C(C)C)OC3=O)[C@@H](O)[C@H](O)[C@H]2O)cc1O` was tested, and the Activity [1] was “Active”, the Activity [2] was “Active” and the inhibition [3] was “Active”. The Activity [4] was “Active”, the Activity [5] was “Active” and the inhibition [6] was “inactive”. For the same molecule, the Activity [7] was “Active”, the Activity [8] was “Active” and the Activity [9] was “Active”. The inhibition [10] was “inactive”, the Activity [11] was “Active” and the Activity [12] was “Active”. For the same molecule, the Activity [13] was “Active”, the Activity [14] was “Active” and the Activity [15] was “Active”.
For `CC(C)=CC(=O)/C=C(/C)CCO[C@H]1O[C@@H](COC(=O)/C=C/c2ccc(O)c(O)c2)[C@H](O)[C@@H](O)[C@@H]1O`, the Activity [14] was “Active”.
With `CC(C)=C[C@H]1C/C(=C\CO[C@H]2O[C@@H](COC(=O)/C=C/c3ccc(O)cc3)[C@H](O)[C@@H](O)[C@@H]2O)C(=O)O1` the Activity [14] was “inactive”.
`COC(=O)/C=C/c1ccc(O)c(OC)c1` was tested, and the Activity [14] was “inactive”.
With `CC(C)=C[C@@H]1C/C(=C\CO[C@H]2O[C@@H](COC(=O)/C=C/c3ccc(O)cc3)[C@H](O)[C@@H](O)[C@@H]2O)C(=O)O1` the Activity [14] was “Active”.
In the case of `CC(C)=CC(=O)/C=C(\C)CCO[C@H]1O[C@@H](COC(=O)/C=C/c2ccc(O)c(O)c2)[C@H](O)[C@@H](O)[C@@H]1O`, the Activity [14] is reported as “Active”.
`COc1ccc(/C=C/C(=O)OC[C@@H]2O[C@H](OC/C=C3\C[C@H](C=C(C)C)OC3=O)[C@@H](O)[C@H](O)[C@H]2O)cc1O` was tested, and the Activity [14] was “Active”.
